Patent publication US20260234180A1, “AMINO ACID DERIVATIVE, PREPARATION METHOD THEREFOR, AND PHARMACEUTICAL COMPOSITION FOR TREATING HEPATITIS, COMPRISING SAME” (priority 2021, published 2026)

Key:
HBV virus = experiment: HBV infection of HepG2-NTCP cells, Southern blot analysis; assay type: cell-based, hepatitis B virus (HBV); settings: 20 μM
Description: Specifically, the HepG2-NTCP cell line was cultured on a 6-well plate, incubation was performed overnight, HBV inhibitors were treated at a concentration of 20 μM, and the positive control Myrcludex-B (MyrB) was treated at a concentration of 200 nM, followed by culture for 24 hours. After HBV infection into the cells to make HBV 3000 genome equivalent per ml/cell (Geq/cell), the cell culture medium was replaced (medium changing, MC) a day after the viral infection to remove the virus unattached to cell membranes. In order to measure an amount of virus that entered the cell, medium changing (MC) was performed once more 4 days after viral infection. 2 days after replacement, HBeAg ELISA analysis was performed using a supernatant, and Southern blot analysis was performed with cell pellets.
First, the cell pellets were pipetted with 100 μl of HEPES lysis buffer (10 mM HEPES, 100 mM NaCl, 1 mM EDTA, 1% NP-40), placed on ice for 20 minutes, and then centrifuged with a centrifuge under the conditions at 4° C. and 13000 rpm. After transferring the supernatant only to the new microtube, 4.5 μl of nuclease buffer I (10 mM CaCl2), 12 mM MgCl2, DNase 10 units) was added to carry out a reaction at 37° C. for 2 hours, and 40 μl of 26% PEG solution was added, followed by a reaction on ice for 1 hour. After centrifuging with the centrifuge at 4° C. and 13000 rpm for 30 minutes, and the supernatant was removed cleanly. After releasing the pellets with 100 μl of nuclease buffer II (10 mM Tris, 8 mM CaCl2), 6 mM MgCl2), 287.5 μl of 0.5% SDS buffer (25 mM Tris, 10 mM EDTA, 0.5% SDS, 100 mM NaCl) was added, and 12.5 μl of 20 mg/ml proteinase K was added, followed by a reaction at 37° C. for 2 hours. 400 μl of phenol-chloroform-isoamyl alcohol was added, centrifugation was performed at room temperature at 13000 rpm after voltexing, the supernatant was transferred to a new tube, 40 μl of 3 M NaOAc was added, and 800 μl of 100% ethanol was added for inverting, followed by a reaction overnight at −20° C. After performing centrifugation at 4° C. and 13000 rpm for 30 minutes, 800 μl of 70% ethanol was added and mixed to the pellet obtained by removing the supernatant, centrifugation was performed at 4° C. and 13000 rpm for 10 minutes, and then the supernatant was discarded. The ethanol was dried for 5 minutes to leave only the HBV DNA pellets, and then the pellets were dissolved again in 15 μl of TE buffer (10 mM Tris, 1 mM EDTA). HBV DNA samples were loaded in 1% agarose gel, and electrophoresis was performed. It was then immersed in denature buffer (0.25 N NaOH, 1 M NaCl) for 30 minutes to denature dsDNA of HBV into ssDNA. The DNA in the gel was transferred to a Nylon membrane using a transfer buffer (0.4 M NaOH), the membrane was soaked with a 2×SSC buffer (sigma, cat #85639) for neutralization, followed by drying in air. The membrane was immersed in a church buffer (10% BSA, 0.5 M EDTA, 1 M NaPi, 20% SDS), and the radioisotopes were hybridized using a Mega prime kit (GE healthcare, RPN1607). After washing three times with washing buffer (2×SSC, 0.1% SDS), measurement was performed using radioisotope measurement equipment, and a relative replication rate (%) to the negative control group (Mock) was calculated and shown.

[1] = target: T1, NTCP (Na+ taurocholate cotransporting peptide), HepG2-hNTCP-C4 cell line (Homo sapiens, UniProt Q14973); experiment: Inhibition of binding between FITC-labelled PreS1 and NTCP expressing cell line, flow cytometry
T1 construct: expressed in transfected cells; host or cells: HepG2-hNTCP-C4 (HepG2 cells expressing human NTCP)
T1 sequence (Q14973 1-349): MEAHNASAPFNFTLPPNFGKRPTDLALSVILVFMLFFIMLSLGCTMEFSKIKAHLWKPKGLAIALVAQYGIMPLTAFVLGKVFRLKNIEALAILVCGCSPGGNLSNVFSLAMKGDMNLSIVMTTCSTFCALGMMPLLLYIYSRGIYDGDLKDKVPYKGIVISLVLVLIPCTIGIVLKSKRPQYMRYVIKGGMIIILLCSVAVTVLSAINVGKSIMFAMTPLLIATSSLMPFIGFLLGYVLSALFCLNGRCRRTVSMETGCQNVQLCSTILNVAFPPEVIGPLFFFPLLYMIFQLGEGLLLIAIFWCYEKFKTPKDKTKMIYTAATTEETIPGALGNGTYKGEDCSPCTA
Description: HepG2-hNTCP-C4 cell line, a cell line expressing NTCP, was seeded in a 6 well plate at a density of 2×10^5/well and incubated at 4° C. for 30 minutes when the confluency reached 80% after overnight incubation for 2 days. Thereafter, 20 nM PreS1 (Myr-GTNL […]-Lys(FITC) (SEQ ID NO: 1)) and the compounds in Example 1, Examples 38 to 56 or the compound in Comparative Example 1 were treated by diluting in culture media at 4° C. at a concentration of 50 µM respectively, and the media was suctioned after 2 hours, followed by washing 3 times with 4° C. PBS. In order to take the cells off from the plate, 500 μl of 0.5 mM EDTA PBS solution was treated, and then incubation was performed at 37° C. for 15 minutes to check whether the cells fell off through an optical microscope. After taking off the cells by pipetting, the cells were collected in a 1.5 ml tube and centrifuged (4000 rpm, 4° C., 3 min). After suctioning the supernatant, the pellet was washed 3 times with 4° C. PBS, and then green fluorescence was measured via flow cytometry. In this case, taurocholic acid (TCA), a compound known as a substrate of NTCP to reduce the entry of HBV or HDV, was used as a positive control group.
In the graph at the top of FIG. 1, black (1) and red (2) indicate a negative control group with no treatment and an HBV-induced group (HBV preS1) solely treated with PreS1, respectively. Blue (HBV preS1+HBV entry inhibitor) (3) is the fluorescence value for each of Examples or Comparative Examples, evaluated that the closer to the negative control group, the more inhibited the binding between PreS1 and the NTCP cell line.
The experimental method was the same as in the Experimental Example 1-1, and 20 nM PreS1 and each compound were treated at 4 concentrations (0.2 μM, 2 μM, 10 μM, 50 μM).
With an expectation that there is a structure-activity relationship among compounds composed of bile acid and amino acids, for each of bile acids in Comparative Example 1 (lithocholic acid, LCA), Comparative Example 2 (ursodeoxycholic acid, UDCA), Comparative Example 3 (cholic acid, CA), Comparative Example 4 (hyodeoxycholic acid, HDCA), Comparative Example 5 (deoxycholic acid, DCA), and Comparative Example 6 (chenodeoxycholic acid, CDCA), an evaluation experiment was conducted on an ability to inhibit the binding between PreS1 and NTCP expressing cell lines, and also for Examples 1 (LCA-Ile) and Example 44 (LCA-Val) as well as the compounds in Example 2 (UDCA-Ile), Example 3 (UDCA-Val), Example 6 (CA-Ile), Example 7 (CA-Val), Example 8 (HDCA-Ile), Example 9 (HDCA-Val), Example 10 (DCA-Ile), Example 11 (DCA-Val), Example 14 (CDCA-Ile), and Example 15 (CDCA-Val) in which bile acid parts (lithocholic acid) of Example 1 (LCA-Ile) and Example 44 (LCA-Val) were substituted with other types of bile acids in Comparative Examples 2 to 6, an evaluation experiment was conducted on an ability to inhibit the binding between PreS1 and NTCP expressing cell lines. The experimental method was the same as in the Experimental Example 1-1, and 18 compounds in the Comparative Examples 1 to 6, Examples 1 to 3, Examples 6 to 11, Examples 14 to 15, and Example 44 were treated at a concentration of 50 µM along with 20 nM PreS1.
In FIG. 9, an evaluation experiment was conducted to check a degree of inhibiting the binding between PreS1 and NTCP expressing cell lines for compounds in Examples 4 to 5, Examples 12 to 13, Examples 16 to 17, and Comparative Examples 2 (ursodeoxycholic acid, UDCA), Comparative Examples 5 (deoxycholic acid, DCA), and Comparative Examples 6 (chenodeoxycholic acid, CDCA) according to the present disclosure. The experimental method was the same as the Experimental Example 1-1.
In the Experimental Examples 1-4, it was determined whether there is additionally concentration dependence for Example 4 (UDCA-Trp), a compound with good inhibitory ability. […]

## CC(C)[C@H](NC(=O)CC[C@@H](C)[C@H]1CC[C@H]2[C@@H]3CC[C@@H]4C[C@H](O)CC[C@]4(C)[C@H]3CC[C@]12C)C(=O)N[C@@H](Cc1c[nH]c2ccccc12)C(=O)O [Example 25, (S)-2-((S)-2-((R)-4-((3R,5R,8R,9S,10S,13R,14S,17R)-3-hydroxy-10,13-dimethyl-hexadecahydro-1H-cyclopenta[a]phenanthren-17-yl)pentanamido)-3-methylbutanamido)-3-(1H-indol-3-yl)propanoic acid]
HBV virus
  amount of HBeAg DNA detected compared to the negative control group (Mock): relatively less amount

## C[C@H](CCC(=O)N[C@@H](CCC(=O)O)C(=O)O)[C@H]1CC[C@H]2[C@@H]3CC[C@@H]4C[C@H](O)CC[C@]4(C)[C@H]3CC[C@]12C [Example 55, (S)-2-((R)-4-((3R,5R,8R,9S,10S,13R,14S,17R)-3-hydroxy-10,13-dimethyl-hexadecahydro-1H-cyclopenta[a]phenanthren-17-yl)pentanamido)pentanedioic acid]
HBV virus
  amount of HBeAg DNA detected compared to the negative control group (Mock): relatively less amount

## C[C@H](CCC(=O)N[C@@H](Cc1ccc(O)cc1)C(=O)O)[C@H]1CC[C@H]2[C@@H]3CC[C@@H]4C[C@H](O)CC[C@]4(C)[C@H]3CC[C@]12C [Example 52, (S)-2-((R)-4-((3R,5R,8R,9S,10S,13R,14S,17R)-3-hydroxy-10,13-dimethyl-hexadecahydro-1H-cyclopenta[a]phenanthren-17-yl)pentanamido)-3-(4-hydroxyphenyl)propanoic acid]
[1]; 0.2 μM, 2 μM, 10 μM, 50 μM, 20 nM PreS1
  effect of inhibiting the binding between PreS1 and NTCP expressing cell lines by treatment concentration: concentration dependent
[1]; compound 50 µM, 20 nM PreS1, 4° C., 2 hours, lower = more inhibited binding
  relative fluorescence intensity compared to Comparative Example 1 (LCA): low and lower
HBV virus
  amount of HBeAg DNA detected compared to the negative control group (Mock): relatively less amount
